Holding throughout (type): cell-based
Test [1] has as its system Escherichia coli (ATCC number: 25922). Briefly: Phototoxicity test (photodynamic activity, CFU assay) against gram-negative bacteria. The conditions noted are these: E. coli; 15 min incubation in darkness, then irradiation 12.3 J/cm^2 blue light (Emax 418 nm); CFU/ml 24 h after. How it is done:
(§1) A sample of the bacterial strain Staphylococcus aureus (ATCC number: 25923) or Escherichia coli (ATCC number: 25922) was extracted from a cryogenically frozen culture, isolated on Müller-Hinton agar plates, and cultured under aerobic conditions at 37° C. in an overnight culture. 10 ml Müller-Hinton liquid medium was then inoculated with a smear of the bacterial culture (individual colony) and incubated overnight at 37° C. The thus-obtained bacterial suspension was centrifuged for 15 min at 3000 rpm and the obtained bacterial pellet was resuspended in 10 ml sterile PBS. The optical density of the bacterial suspensions for the phototoxicity tests was OD600nm=0.6, which corresponds to a bacterial count of ˜[…] bacteria per ml. The biochemical analysis and resistance determination of the bacteria were carried out with the VITEK2 system according to the guidelines M100-S14 of the NCCLS (National Committee for Clinical Laboratory Standards guidelines 2004).
(§2) 200 μl of a bacterial suspension (bacterial density: 10^8-10^12/ml) was incubated with 200 μl each of different concentrations of the photosensitizers listed in Table 1 at 37° C. in darkness for 15 minutes. The bacteria were then washed twice with PBS, resuspended in 200 μl PBS, the entire volume was transferred to a 96-well microtiter plate and then irradiated.
(§3) For the sensitization, the UV 236 lamp (emission 380-480 nm, with an emission maximum Emax: 418 nm) from Waldmann Medizintechnik was used and the plates lying on the light source were irradiated from below, in order to prevent scattering through the liquid. The applied light dose was 12.3 J/cm^2. As controls, bacterial suspensions that were irradiated, not irradiated and only incubated with photosensitizer were entrained, and incubated both with and without photosensitizer.
(§4) The CFU assay was then carried out to determine the colony-forming units per ml (CFU). For this, a series of dilutions from 10^−1 to 10^−9 of the corresponding bacterial suspension was produced. 100 μl was then plated onto Müller-Hinton plates and incubated at 37° C. for 24 h. The number of surviving colonies was then determined by counting and plotted on a graph as colony-forming units (CFU) per ml against the respectively used photosensitizer concentration.

Test [2] has as its system Staphylococcus aureus (ATCC number: 25923). Kind of test: Phototoxicity test (photodynamic activity, CFU assay) against gram-positive bacteria. Conditions: for Required concentration in order to achieve a reduction by ≧ 3 log10 steps: S. aureus, 15 min incubation in darkness, then irradiation 12.3 J/cm^2 blue light (Emax 418 nm), CFU/ml 24 h after; for antimicrobial action compared with the starting substance perinaphthenone: from Table 1 (S. aureus and E. coli, sentence does not separate them), reduction of the germ count by 3 log10 steps; for times lower concentration needed to achieve a reduction by 3 log10 steps, compared with perinaphthenone: phototoxicity test, Table 1 (S. aureus and E. coli, sentence does not separate them). How it is done:
as §1, §2, §3, §4

A further test concerns S. aureus. Kind of test: Surface disinfection of catheter tubes, cell count after illumination. The conditions noted are these: catheter sections with dried S. aureus; 5 min in darkness, 12.3 J/cm^2 blue light (Emax 418 nm) for 30 min. How it is done:
5-cm long catheter sections were filled with 1 ml of a stable S. aureus solution (1 E+12 cfu/ml) and incubated overnight at 37° C. After drying-out of the solution, in each case 2 ml of a solution of PBS which contained a corresponding concentration (0, 1, 10, 50, 80 and 100 μM) of the compounds produced in Examples 2), 4b), 5b), 7) and 10) and 1H-phenalene-1-one was sprayed. After a short exposure time of 5 minutes in darkness, the catheter sections were illuminated with a light dose of 12.3 J/cm^2 with blue light (Emax: 418 nm) for a period of 30 min.
As a control, in each case non-illuminated catheter sections were used, to which the corresponding concentrations (0, 1, 10, 50, 80 and 100 μM) of the compounds produced in Examples 1b)-f) and 1H-phenalene-1-one were applied.
To determine the cell count, the illuminated and non-illuminated catheter sections were filled with 1 ml PBS and ultrasounded. Growth medium was added to the washing solution in different dilutions (10^0 to 10^7) and the solution was smeared onto agar plates. The cell count was performed after 24 h of incubation at 37° C.

The structures appear in SMILES notation. Where a name gives a salt, the structure may show the parent alone.

Consider `O=C1C=Cc2cccc3cccc1c23` [Comparison, perinaphthenone, reference compound], for which the “Required concentration in order to achieve a reduction by ≧ 3 log10 steps” value in test [1] is given as 300 μM; in test [2] it was 200 μM.

As for `NCC1=Cc2cccc3cccc(c23)C1=O` [Example 2, 2-Aminomethyl-1H-phenalene-1-one], the “Required concentration in order to achieve a reduction by ≧ 3 log10 steps” value in test [1] is reported as 50 μM; in test [2], 1 μM. In addition, the “antimicrobial action compared with the starting substance perinaphthenone” value in test [2] is “improved antimicrobial action”. Moreover, the “times lower concentration needed to achieve a reduction by 3 log10 steps, compared with perinaphthenone” value (in test [2]; with S. aureus) was “approximately 10 times” in each case.

On to `NCCOCC1=Cc2cccc3cccc(c23)C1=O` [Example 4b, 2-((2-Aminoethoxy)methyl)-1H-phenalene-1-one hydrochloride], for which the “Required concentration in order to achieve a reduction by ≧ 3 log10 steps” value in test [1] was found to be 300 μM. Moreover, in test [2], the “Required concentration in order to achieve a reduction by ≧ 3 log10 steps” value amounted to 50 μM; the “antimicrobial action compared with the starting substance perinaphthenone” value is “improved antimicrobial action”; the “times lower concentration needed to achieve a reduction by 3 log10 steps, compared with perinaphthenone” value was “approximately 10 times”. In the test with S. aureus, the “times lower concentration needed to achieve a reduction by 3 log10 steps, compared with perinaphthenone” value is “approximately 10 times”.

For `NCCOCCOCC1=Cc2cccc3cccc(c23)C1=O` [Example 5b, 2-((2-(2-Aminoethoxy)ethoxy)methyl)-1H-phenalene-1-one hydrochloride], the “Required concentration in order to achieve a reduction by ≧ 3 log10 steps” value in test [1] was determined as 80 μM. Also, in test [2], the “Required concentration in order to achieve a reduction by ≧ 3 log10 steps” value turned out to be 50 μM; the “antimicrobial action compared with the starting substance perinaphthenone” value was “improved antimicrobial action”; the “times lower concentration needed to achieve a reduction by 3 log10 steps, compared with perinaphthenone” value was “approximately 10 times”. Also, the “times lower concentration needed to achieve a reduction by 3 log10 steps, compared with perinaphthenone” value in the test with S. aureus is on record as “approximately 10 times”.

On to `O=C1C(C[n+]2ccccc2)=Cc2cccc3cccc1c23` [Example 7], for which the “Required concentration in order to achieve a reduction by ≧ 3 log10 steps” value in test [1] is recorded as 10 μM. Moreover, in test [2], the “Required concentration in order to achieve a reduction by ≧ 3 log10 steps” value was 80 μM; the “antimicrobial action compared with the starting substance perinaphthenone” value was “improved antimicrobial action”; the “times lower concentration needed to achieve a reduction by 3 log10 steps, compared with perinaphthenone” value was “approximately 10 times”. Moreover, the “times lower concentration needed to achieve a reduction by 3 log10 steps, compared with perinaphthenone” value with S. aureus is “approximately 10 times”.

Consider `CC[N+](CC)(CC)CC1=Cc2cccc3cccc(c23)C1=O` [Example 10, 2-((N,N,N-Triethyl)aminomethyl)-1H-phenalene-1-one hydrochloride], for which the “Required concentration in order to achieve a reduction by ≧ 3 log10 steps” value in test [1] is recorded as 50 μM for S. aureus; 50 μM for E. coli. In addition, in test [2], the “Required concentration in order to achieve a reduction by ≧ 3 log10 steps” value is 50 μM for S. aureus; 50 μM for E. coli; the “antimicrobial action compared with the starting substance perinaphthenone” value is reported as “improved antimicrobial action”; the “times lower concentration needed to achieve a reduction by 3 log10 steps, compared with perinaphthenone” value is listed as “approximately 10 times”. Further, the “times lower concentration needed to achieve a reduction by 3 log10 steps, compared with perinaphthenone” value in the test with S. aureus is “approximately 10 times”.
